Data from paper PMC9785542, “Discovery of 1-Benzhydryl-Piperazine-Based HDAC Inhibitors with Anti-Breast Cancer Activity: Synthesis, Molecular Modeling, In Vitro and In Vivo Biological Evaluation” (Pharmaceutics, 2022).
Read-outs that look alike come from different tables or passages of the source. Values belong to the compound of their own block, whether it stands above or below them.

Experiments:
[1] = test system: MCF-7 cells; assay: Cell viability (MTT) assay, MCF-7; type: cell-based; conditions: Homo sapiens, MCF7, 48 h, read-out: Cytotoxic activity IC50 ± SD, MCF-7
Procedure: (§1) Human breast adenocarcinoma cells (MCF-7, ATCC® HTB-22™) and triple-negative breast cancer cells (MDA-MB-231, ATCC® HTB-26™) were obtained from the American Type Culture Collection (Rockville, MD, USA). Cells were maintained as a monolayer culture in DMEM:Ham’s 12 (1:1) medium (Sigma-Aldrich, St. Louis, MO, USA) supplemented with penicillin (192 U/mL), streptomycin (200 µg/mL), and 10% of heat-inactivated fetal calf serum (FCS). Cells were grown at 37 °C in 5% CO2 and humidified air atmosphere, by twice weekly subculture.
(§2) Cytotoxic activity of synthesized 1-benzhydryl-piperazine-based HDAC inhibitors was assessed on MDA-MB-231 and MCF-7 cells using an MTT assay. MDA-MB-231 (5 × 10^3 cells/well) and MCF-7 (5 × 10^3 cells/well) were treated with synthesized compounds in six different concentrations (100, 50, 25, 12.5, 6.25, and 3.13 μM), and each concentration was added in five replicates. MTT solution (3-(4,5-dimethylthiazol-2-yl)-2,5-diphenyltetrazolium bromide) (Sigma-Aldrich, St. Louis, USA) was added to each well (20 µL) after 48 h. After 4 h of incubation, 100 μL of 10% SDS was added in each well and incubated at 37 °C. On the next day, the absorbance at 570 nm was recorded. The ratio of absorbance (570 nm) values between treated and control cells multiplied by 100 was used to calculate cell survival (%). The concentration of synthesized HDAC inhibitors that reduced cell viability by 50% was defined as the IC50 value, and was compared to the vehicle control.

[2] = test system: MDA-MB-231 cells; assay: Cell viability (MTT) assay, MDA-MB-231; type: cell-based, human; conditions: Homo sapiens, MDA-MB-231, 48 h, read-out: Cytotoxic activity IC50 ± SD, MDA-MB-231
Procedure: as §1, §2

[3] = test system: MDA-MB-231 tumor spheres; assay: 3D tumor sphere model, MTT and imaging; type: cell-based, human; conditions: for tumor sphere viability: 50 µM, 72 h, formed spheres, MTT
Procedure: MDA-MB-231 cells were seeded at a cell density of 1000 c/w in 100 μL of DMEM containing 10% FCS in a low-attachment NunclonSphera 96-well ultra-low attachment plate (Thermo Scientific Nunc™, Rochester, NY, USA), to form multicellular tumor spheres, for 4 days. The formation and growth of tumor spheres were examined and imaged with an Olympus CKX53 microscope, using a 10× objective. MDA-MB-231 tumor spheres were treated by carefully adding 50 μL of the medium with fresh nutrient medium for control spheres or with compound-supplemented medium (50 μM) for treated spheres for another 72 h. The cytotoxicity of compounds toward the MDA-MB-231 tumor spheres was investigated by MTT assay.
The formation and growth of tumor spheroids were examined and imaged with an Olympus CKX53 microscope, using 4x objective. The cytotoxicity of compounds toward the MDA-MB-231 tumor spheroids was investigated by MTT assay.

[4] = test system: HDAC6; conditions: Figure 2; cited from earlier work
[5] = test system: MDA-MB-231 cells; assay: Cell cycle analysis, propidium iodide flow cytometry; type: cell-based, human; conditions: 72 h
Procedure: MDA-MB-231 cells were treated with tested compounds for specified time courses. After treatment, examined cells were washed in cold PBS and incubated for 30 min in 96% ethanol on ice, centrifuged, and incubated with 80 μL RNase A ([…]) and 50 μL propidium iodide (50 μg/mL) for 30 min at 37 °C. The cell cycle was analyzed by FACS Calibur E440 (Becton Dickinson) flow cytometer and Cell Quest software. Results are presented as a percentage of cell cycle phases.

[6] = biological target: T1, Human recombinant N-ter-GST-HDAC-6 (Homo sapiens, UniProt Q9UBN7); assay: HDAC-Glo I/II bioluminogenic enzyme assay, HDAC6; type: biochemical; parameters: GST (N); purchased BPS Bioscience 50006
T1 sequence (Q9UBN7 1-1215): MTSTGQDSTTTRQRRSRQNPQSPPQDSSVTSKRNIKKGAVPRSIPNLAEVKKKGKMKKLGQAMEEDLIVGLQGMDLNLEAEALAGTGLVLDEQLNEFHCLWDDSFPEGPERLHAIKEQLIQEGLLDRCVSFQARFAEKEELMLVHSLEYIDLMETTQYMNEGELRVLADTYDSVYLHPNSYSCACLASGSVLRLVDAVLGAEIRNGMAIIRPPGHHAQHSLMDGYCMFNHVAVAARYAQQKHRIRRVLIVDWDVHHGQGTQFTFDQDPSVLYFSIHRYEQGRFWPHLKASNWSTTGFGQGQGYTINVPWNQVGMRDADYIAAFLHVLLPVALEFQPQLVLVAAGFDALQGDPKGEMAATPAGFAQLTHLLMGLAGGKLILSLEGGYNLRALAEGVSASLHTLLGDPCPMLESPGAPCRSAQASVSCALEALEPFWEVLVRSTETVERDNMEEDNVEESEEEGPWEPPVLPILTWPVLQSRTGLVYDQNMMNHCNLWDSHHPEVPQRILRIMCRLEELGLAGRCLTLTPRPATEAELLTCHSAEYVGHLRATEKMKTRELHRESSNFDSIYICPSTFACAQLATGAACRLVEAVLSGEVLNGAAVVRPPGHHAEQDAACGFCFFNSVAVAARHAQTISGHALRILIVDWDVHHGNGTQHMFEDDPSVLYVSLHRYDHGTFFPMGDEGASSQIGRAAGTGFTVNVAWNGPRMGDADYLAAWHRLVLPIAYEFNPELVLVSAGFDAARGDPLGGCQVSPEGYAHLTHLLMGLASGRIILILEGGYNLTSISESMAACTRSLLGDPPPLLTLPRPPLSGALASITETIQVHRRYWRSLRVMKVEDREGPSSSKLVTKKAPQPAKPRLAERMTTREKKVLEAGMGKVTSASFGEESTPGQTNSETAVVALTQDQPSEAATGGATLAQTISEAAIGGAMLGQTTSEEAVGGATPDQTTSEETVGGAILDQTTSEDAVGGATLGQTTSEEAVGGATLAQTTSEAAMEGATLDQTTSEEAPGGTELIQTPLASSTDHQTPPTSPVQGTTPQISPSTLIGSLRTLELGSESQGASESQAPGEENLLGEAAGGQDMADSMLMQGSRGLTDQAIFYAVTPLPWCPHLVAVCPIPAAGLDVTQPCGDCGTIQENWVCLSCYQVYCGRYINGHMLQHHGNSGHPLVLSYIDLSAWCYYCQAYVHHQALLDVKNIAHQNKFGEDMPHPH

[7] = biological target: T1, Human recombinant N-ter-GST-HDAC-6; conditions: read-out: HDAC Inhibition, IC50, HDAC6; profiles of reference HDACi; cited from earlier work
[8] = biological target: T2, Human recombinant C-ter-His-FLAG-HDAC1 (Homo sapiens, UniProt Q13547); parameters: method as in PMID 21832257; conditions: profiles of reference HDACi; read-out: HDAC Inhibition, IC50, HDAC1; cited from earlier work
T2 construct: His (C); FLAG (C); purchased BPS Bioscience 50051
T2 sequence (Q13547 whole entry): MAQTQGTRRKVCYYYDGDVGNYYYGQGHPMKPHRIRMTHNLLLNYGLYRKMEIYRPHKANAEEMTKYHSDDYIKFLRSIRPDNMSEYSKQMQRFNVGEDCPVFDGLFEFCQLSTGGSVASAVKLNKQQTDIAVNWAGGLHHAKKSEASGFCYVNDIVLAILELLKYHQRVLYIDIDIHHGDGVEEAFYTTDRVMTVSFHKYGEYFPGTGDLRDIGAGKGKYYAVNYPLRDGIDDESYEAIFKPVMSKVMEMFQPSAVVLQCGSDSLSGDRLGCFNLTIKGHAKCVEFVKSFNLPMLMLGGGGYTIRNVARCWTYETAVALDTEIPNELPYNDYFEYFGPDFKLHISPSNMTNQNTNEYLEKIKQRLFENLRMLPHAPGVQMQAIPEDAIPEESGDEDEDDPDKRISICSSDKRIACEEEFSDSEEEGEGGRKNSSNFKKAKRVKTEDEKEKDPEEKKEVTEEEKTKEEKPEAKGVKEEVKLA

[9] = biological target: T3, Human recombinant HDAC-3/NcoR2 (Homo sapiens, UniProt O15379); conditions: read-out: HDAC Inhibition, IC50, HDAC3; cited from earlier work
T3 sequence (O15379 whole entry): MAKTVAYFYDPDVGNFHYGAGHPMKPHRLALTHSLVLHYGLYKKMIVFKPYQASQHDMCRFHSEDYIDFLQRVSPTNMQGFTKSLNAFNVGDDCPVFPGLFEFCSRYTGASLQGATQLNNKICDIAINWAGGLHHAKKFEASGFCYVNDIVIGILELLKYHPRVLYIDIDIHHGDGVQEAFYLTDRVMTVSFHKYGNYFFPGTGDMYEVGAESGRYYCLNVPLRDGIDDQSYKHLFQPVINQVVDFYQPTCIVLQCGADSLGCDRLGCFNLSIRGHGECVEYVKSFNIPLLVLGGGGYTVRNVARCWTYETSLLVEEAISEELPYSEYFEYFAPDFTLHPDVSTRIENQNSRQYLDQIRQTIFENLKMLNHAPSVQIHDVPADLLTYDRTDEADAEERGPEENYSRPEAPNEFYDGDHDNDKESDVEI
T3 sequence (Q9Y618 395-489 partner limits assumed): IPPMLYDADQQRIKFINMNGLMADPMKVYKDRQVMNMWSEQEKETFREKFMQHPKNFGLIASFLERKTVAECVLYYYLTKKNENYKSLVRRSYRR

[10] = biological target: T4, Human recombinant C-terminal His-tag-HDAC8 (Homo sapiens, UniProt Q9BY41); parameters: method as in PMID 21832257; conditions: profiles of reference HDACi; read-out: HDAC Inhibition, IC50, HDAC8; cited from earlier work
T4 construct: His (C); purchased BPS Bioscience 50008
T4 sequence (Q9BY41 1-377): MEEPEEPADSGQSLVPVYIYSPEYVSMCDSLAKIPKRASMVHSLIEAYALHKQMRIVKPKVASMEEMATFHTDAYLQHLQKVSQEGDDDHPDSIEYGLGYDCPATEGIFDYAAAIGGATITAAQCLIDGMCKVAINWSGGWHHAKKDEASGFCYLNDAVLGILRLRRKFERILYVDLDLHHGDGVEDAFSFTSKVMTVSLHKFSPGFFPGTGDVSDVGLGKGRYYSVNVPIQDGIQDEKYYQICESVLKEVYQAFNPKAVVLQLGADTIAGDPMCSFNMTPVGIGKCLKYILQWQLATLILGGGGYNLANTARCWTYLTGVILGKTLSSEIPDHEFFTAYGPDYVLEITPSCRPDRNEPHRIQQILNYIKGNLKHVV

[11] = test system: intersegmental blood vessels (ISVs) of Tg(fli1:EGFP) zebrafish embryos; assay: Anti-angiogenic activity in Tg(fli1:EGFP) zebrafish embryos; type: in vivo; conditions: 8b 6.25-50 µM; Suten effective dose 1.56 µM
Procedure: The inhibitory activity of 8b on angiogenesis was examined using embryos of the transgenic zebrafish Tg(fli1:EGFP) line with GFP-labeled endothelial cells, as previously described. Briefly, embryos at the 6–8 hpf stage were exposed to three non-toxic concentrations and incubated at 28 °C by 48 hpf. At 48 hpf, the treated embryos were anesthetized with 0.02% tricaine, imaged under a fluorescence microscope (Olympus BX51, Applied Imaging Corp., San Jose, CA, USA), and analyzed for the development of intersegmental blood vessels (ISVs). The experiment was performed three times using ten embryos per concentration. ISV lengths were measured using ImageJ program, and expressed as mean value with standard deviation. Inhibitory effect of the applied treatment was determined in relation to the control (DMSO-treated) group, arbitrarily set to 100%.

[12] = biological target: T4, Human recombinant C-terminal His-tag-HDAC8; assay: HDAC-Glo I/II bioluminogenic enzyme assay, HDAC8; type: biochemical; conditions: mean ± SD of three independent experiments; read-out: HDAC Inhibition, IC50 ± SD, HDAC8
[13] = biological target: T2, Human recombinant C-ter-His-FLAG-HDAC1; assay: HDAC-Glo I/II bioluminogenic enzyme assay, HDAC1; type: biochemical; conditions: mean ± SD of three independent experiments; read-out: HDAC Inhibition, IC50 ± SD, HDAC1
[14] = biological target: T3, Human recombinant HDAC-3/NcoR2; assay: HDAC-Glo I/II bioluminogenic enzyme assay, HDAC3; type: biochemical; parameters: purchased BPS Bioscience 50003; conditions: mean ± SD of three independent experiments; read-out: HDAC Inhibition, IC50 ± SD, HDAC3
[15] = test system: MDA-MB-231 cells; assay: Apoptosis assay, Annexin V-FITC/7-AAD flow cytometry; type: cell-based, human; conditions: IC50 concentration
Procedure: Examined breast cancer cells (MDA-MB-231) were stained with annexin V–fluorescein isothiocyanate/and 7AAD (BD Pharmingen, San Diego, CA, USA), and the samples were prepared following the specifications given by manufacturer. The population of apoptotic cells was analyzed by flow cytometry using a FACS Calibur cytometer and Cell Quest computer software (Becton Dickinson, Heidelberg, Germany).

[16] = 5 μM, mean ± standard error of triplicate

Structure (SMILES): CN1CCc2c(c3ccccc3n2Cc2ccc(C(=O)NO)cc2)C1 [tubastatin A, reference compound]
IC50 [1]: 93.3 ± 9.4 µM
IC50 [2]: 20.8 ± 2.84 µM
tumor sphere viability [3]: mild decrease
sphere formation and spheres viability ([3]; co-culture 50 μM, 4 d in sphere culture conditions): significantly inhibited
sub-G1 phase cells [5]: around 30%

Structure (SMILES): O=C(NO)c1cnc(NC2(c3ccccc3)CCC(F)(F)CC2)nc1 [ACY-1083]
IC50 [4]: 0.003 µM

inhibition at 5 µM [6, 16]: < 25%
Structure (SMILES): O=C(CCN1CCN(C(c2ccccc2)c2ccccc2)CC1)NO [Compound 3b, 3-(4-(diphenylmethyl)-piperazin-1-yl)-N-hydroxypropionamide]

Structure (SMILES): CCCC(CCC)C(=O)O [Valproic acid]
IC50 [7]: > 1000 µM
IC50 [8]: 660 µM

inhibition at 5 µM [6, 16]: < 25%
Structure (SMILES): O=C(CCCCN1CCN(C(c2ccccc2)c2ccccc2)CC1)NO [Compound 5b, 5-(4-(diphenylmethyl)-piperazin-1-yl)-N-hydroxypentanamide]

Structure (SMILES): CCCC(=O)[O-].[Na+] [Sodium butyrate]
IC50 [9]: 4.8 µM
IC50 [10]: 10.4 µM
IC50 [7]: > 1000 µM
IC50 [8]: 8.3 µM

Structure (SMILES): CCN(CC)CCNC(=O)c1c(C)[nH]c(/C=C2\C(=O)Nc3ccc(F)cc32)c1C [sunitinib-malate, reference compound]
toxic response in embryos at anti-angiogenic effective doses [11]: life-threatening pericardial edema

% HDAC6 Inhibition at 5 μM [6, 16]: 95.6 ± 0.9%
inhibition at 5 µM [6, 16]: > 90%
IC50 ([6]; mean ± SD of three independent experiments, read-out: HDAC Inhibition, IC50 ± SD, HDAC6): 0.186 ± 0.005 µM
Selectivity Ratio HDAC1/6 ([6]; ratio of IC50 values): 25.4
Selectivity Ratio HDAC3/6 ([6]; ratio of IC50 values): 10
Selectivity Ratio HDAC8/6 ([6]; ratio of IC50 values): 13.1
IC50 [12]: 2.44 ± 0.51 µM
IC50 [13]: 4.73 ± 0.67 µM
IC50 [14]: 1.86 ± 0.09 µM
Structure (SMILES): O=C(CCCCCN1CCN(C(c2ccccc2)c2ccccc2)CC1)NO [Compound 6b, 6-(4-(diphenylmethyl)-piperazin-1-yl)-N-hydroxyhexanamide]
IC50 [1]: 84 ± 5.2 µM
IC50 [2]: 33.4 ± 2.79 µM
tumor sphere viability [3]: mild decrease
sphere formation ([3]; co-culture 4 d, at higher concentrations): inhibit sphere formation to some extent
programmed cell death ([15]; 24 h): slight increase
early apoptotic cells ([15]; 48 h): approximately 20%
early apoptotic cells ([15]; 72 h): approximately 20%
